Experimental data: BigSolDB 2.1

Nc1cccc(C(=O)O)c1O
solubility (mole fraction)
Details | 293.2 K | 298.2 K | 303.2 K | 308.2 K | 313.2 K
in ethanol | 0.000186 | 0.000238 | 0.000285 | 0.000332 | 0.000386
in water | 0.000113 | 0.000126 | 0.000141 | 0.00016 | 0.000178
